The values that follow come from PubChem BioAssay (NCI).

Among the test systems are HCT-116 colon; SK-OV-3 ovarian; MCF7 breast; MOLT-4 leukemia; NCI-H460 lung; OVCAR-8 ovarian; COLO 205 colon; OVCAR-4 ovarian; RXF 393 renal; CCRF-CEM leukemia; MALME-3M melanoma; HS 578T breast; SW-620 colon; SN12C renal; TK-10 renal; SR leukemia; UO-31 renal.
What all share (experiment): NCI-60 cell line screen, 48 h

SMILES strings stand for the structures.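 Values below derive from 48-hour exposures of cells grown in 96-well plates, with endpoints linearly interpolated between the two concentrations bracketing the appropriate inhibition level. TGI denotes the concentration required for complete inhibition of growth.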 Bounds are passed on as bounds.

With `COC(=O)[C@H](COC(=O)/C=C/c1ccc(OC(C)=O)c(OC(C)=O)c1)NC(=O)/C=C/c1ccc(OC(C)=O)c(OC(C)=O)c1`, the TGI in the test on HCT-116 colon was 36.2 µM; with SK-OV-3 ovarian, 54.3 µM; with MCF7 breast, greater than 100 µM; in the test with MOLT-4 leukemia, greater than 100 µM; in the test with NCI-H460 lung it was 53.9 µM; with OVCAR-8 ovarian, 67.4 µM. Further, the TGI was 37 µM in the test with COLO 205 colon; 38.9 µM in the test on OVCAR-4 ovarian; greater than 100 µM in the test with RXF 393 renal; greater than 100 µM in the test on CCRF-CEM leukemia; 20.7 µM in the test with MALME-3M melanoma; 49.7 µM with HS 578T breast. The values for the TGI with SW-620 colon and with SN12C renal were greater than 100 µM and 36.4 µM, respectively.

Consider `Cc1ccc(S(=O)(=O)Nn2c(O)c(C#N)c(-c3ccc(N(C)C)cc3)c(C#N)c2=O)cc1`, for which the TGI in the test with HCT-116 colon was greater than 50 µM; in the test with SK-OV-3 ovarian, 27.4 µM; in the test on TK-10 renal, greater than 50 µM; with MCF7 breast, greater than 50 µM; with MOLT-4 leukemia, greater than 50 µM; with NCI-H460 lung, greater than 50 µM. For the same molecule, the TGI in the test on OVCAR-8 ovarian, in the test with COLO 205 colon, with OVCAR-4 ovarian, in the test with RXF 393 renal, in the test with CCRF-CEM leukemia and in the test with MALME-3M melanoma was greater than 50 µM throughout. Moreover, the TGI in the test with HS 578T breast, with SW-620 colon and with SN12C renal was greater than 50 µM in each case.

Turning to `O=c1c2cc(S(=O)(=O)Nc3c(Cl)cccc3Cl)ccc2ncn1NS(=O)(=O)c1ccc2ccccc2c1`, the TGI with HCT-116 colon, in the test with SK-OV-3 ovarian, in the test on TK-10 renal, in the test with SR leukemia, in the test on MCF7 breast and in the test with MOLT-4 leukemia was greater than 62.5 µM in each case. The TGI in the test on NCI-H460 lung, in the test with OVCAR-8 ovarian, with COLO 205 colon, with OVCAR-4 ovarian, in the test on CCRF-CEM leukemia and in the test on MALME-3M melanoma was greater than 62.5 µM throughout. Also, the TGI with HS 578T breast, in the test with SW-620 colon, in the test with UO-31 renal and in the test with SN12C renal was greater than 62.5 µM in each case.

Turning to `COC(=O)C1(C(=O)OC)CC2=C(S(=O)(=O)c3ccccc3)C[C@H](C#N)[C@H]2C1`, the TGI in the test on HCT-116 colon, with SK-OV-3 ovarian, in the test with TK-10 renal, in the test on MCF7 breast, in the test on MOLT-4 leukemia and in the test on OVCAR-8 ovarian was greater than 100 µM in each case. For the same molecule, the TGI in the test with COLO 205 colon, in the test on OVCAR-4 ovarian, with RXF 393 renal, with CCRF-CEM leukemia, with MALME-3M melanoma and in the test on HS 578T breast was greater than 100 µM throughout. In addition, the TGI with SW-620 colon, in the test on UO-31 renal and in the test on SN12C renal was greater than 100 µM each time.

As to `CCOC(=O)c1cc2cc(C)cc(C(=O)c3ccc([N+](=O)[O-])cc3)c2[nH]1`, the TGI with HCT-116 colon, with SK-OV-3 ovarian, in the test on TK-10 renal, in the test with MCF7 breast, in the test with MOLT-4 leukemia and in the test on NCI-H460 lung was greater than 100 µM throughout. Besides, the TGI in the test on COLO 205 colon, in the test with OVCAR-4 ovarian, in the test with RXF 393 renal, with MALME-3M melanoma, with HS 578T breast and in the test with SW-620 colon was greater than 100 µM in each case. The TGI in the test on UO-31 renal and with SN12C renal was greater than 100 µM throughout.

As to `O=C1C=C2CC[C@H]3[C@@H]4CC[C@H](OC(=O)c5cccc6cc7ccccc7nc56)[C@H]4CC[C@@H]3[C@H]2CC1`, the TGI in the test with HCT-116 colon, with SK-OV-3 ovarian, with TK-10 renal, in the test with MCF7 breast, with MOLT-4 leukemia and with OVCAR-8 ovarian was greater than 100 µM each time. Further, the TGI in the test with COLO 205 colon, in the test on OVCAR-4 ovarian, in the test on CCRF-CEM leukemia, with MALME-3M melanoma, with HS 578T breast and in the test on SW-620 colon was greater than 100 µM throughout. Further, the TGI in the test on UO-31 renal and in the test on SN12C renal was greater than 100 µM throughout.

As to `N#CCc1nc(-c2cc3c(ccc4ccccc43)oc2=O)cs1`, the TGI in the test on HCT-116 colon is greater than 100 µM; with SK-OV-3 ovarian, 77 µM; with TK-10 renal, 38.9 µM; in the test on MCF7 breast, greater than 100 µM; in the test on MOLT-4 leukemia, greater than 100 µM; with NCI-H460 lung it was greater than 100 µM. Moreover, the TGI is greater than 100 µM in the test with OVCAR-8 ovarian; greater than 100 µM in the test with COLO 205 colon; 60.4 µM in the test on OVCAR-4 ovarian; 74 µM in the test on RXF 393 renal; greater than 100 µM in the test on CCRF-CEM leukemia; greater than 100 µM in the test with MALME-3M melanoma. Besides, the TGI in the test with HS 578T breast is 63.4 µM; in the test with SW-620 colon, greater than 100 µM; with UO-31 renal, greater than 100 µM; in the test with SN12C renal, greater than 100 µM.

Turning to `C=C(CN)CO[Si](C)(C)C(C)(C)C`, the TGI in the test on HCT-116 colon, in the test with SK-OV-3 ovarian, in the test with TK-10 renal, in the test with SR leukemia, in the test on MCF7 breast and with MOLT-4 leukemia was greater than 100 µM throughout. For the same molecule, the TGI with NCI-H460 lung, in the test on OVCAR-8 ovarian, in the test with COLO 205 colon, in the test on CCRF-CEM leukemia, in the test on MALME-3M melanoma and in the test on HS 578T breast was greater than 100 µM each time. For the same molecule, the TGI with SW-620 colon, in the test with UO-31 renal and with SN12C renal was greater than 100 µM in each case.

Turning to `N#CC(c1ccccc1)N(CCOCCOCCN(C(=O)c1cccc2ccccc12)C(C#N)c1ccccc1)C(=O)c1cccc2ccccc12` (stereo not given), the TGI in the test on HCT-116 colon, with SK-OV-3 ovarian, with TK-10 renal, in the test on MCF7 breast, with MOLT-4 leukemia and in the test with NCI-H460 lung was greater than 100 µM in each case. For the same molecule, the TGI in the test with OVCAR-8 ovarian, in the test with COLO 205 colon, with OVCAR-4 ovarian, in the test with RXF 393 renal, with CCRF-CEM leukemia and in the test on MALME-3M melanoma was greater than 100 µM in each case. For the same molecule, the TGI with HS 578T breast, in the test on SW-620 colon, in the test with UO-31 renal and with SN12C renal was greater than 100 µM throughout.
